Test results taken from patent publication US20250250232A1, “AZETIDINE DERIVATIVES AND USE THEREOF AS DIPEPTIDYL PEPTIDASE 1 INHIBITORS” (CHIESI FARMACEUTICI S.P.A., priority 2022, published 2025).
Several values for one entry are separate records, joined by “and”; a condition that tells them apart may be missing. Identical values can stand only once.

Target: T1, human DPP1 enzyme (Homo sapiens (Human), UniProt P53634)
Assay: Activity on human recombinant DPP1 isolated enzyme assay (H-Gly-Arg-AMC cleavage, fluorescence)
Type: biochemical
Details: 0.35 nM human DPP1, 300 μM H-Gly-Arg-AMC, 30 min pre-incubation at 25° C., pH 5.0
Protocol: Human DPP1 enzyme activity was determined by measuring release of the fluorophore aminomethyl coumarin (AMC) following enzymatic cleavage of the dipeptide substrate H-Gly-Arg-AMC. Assays were performed in black 384 well plates in 25 mM piperazine buffer, pH 5.0, containing 50 mM NaCl, 0.01% (v/v) Triton X100, 5 mM DTT with 0.35 nM human DPP1 enzyme, 300 μM H-Gly-Arg-AMC substrate (˜Km concentration) and test compounds at 0.51-10000 nM concentration range. Human DPP1 was pre-incubated with test compounds for 30 minutes at 25° C. prior to substrate incubation for a further 40 minutes at 25° C. Enzyme activity was determined by measuring fluorescence of the AMC product at excitation and emission wavelengths of 380 nm and 460 nm using a BMG LABTECH PHERA star plate reader. Test compound potencies are reported in Table 15 as pIC50 values generated from 4-parameter sigmoidal curve fitting of the measured concentration-inhibition responses.

T1 sequence (P53634 231-394): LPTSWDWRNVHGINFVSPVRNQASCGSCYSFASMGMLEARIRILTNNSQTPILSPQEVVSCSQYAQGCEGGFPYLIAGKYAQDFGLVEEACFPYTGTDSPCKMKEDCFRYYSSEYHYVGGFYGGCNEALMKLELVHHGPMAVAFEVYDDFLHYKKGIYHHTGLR
T1 sequence (P53634 25-134): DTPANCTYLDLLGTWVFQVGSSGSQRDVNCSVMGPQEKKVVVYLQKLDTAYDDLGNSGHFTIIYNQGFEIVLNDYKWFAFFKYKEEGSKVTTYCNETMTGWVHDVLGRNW
T1 sequence (P53634 395-463): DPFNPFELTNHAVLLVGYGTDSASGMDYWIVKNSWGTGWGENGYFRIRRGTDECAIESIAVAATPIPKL

h DPP1 pIC50	SMILES
++++ (h DPP1 pIC50 higher than 8)	COC1(C(=O)N[C@H](C#N)Cc2ccc(-c3ccc(C#N)cc3)cc2)CN(C)C1 [Example 24, (S)-N-(1-cyano-2-(4′-cyano-[1,1′-biphenyl]-4-yl)ethyl)-3-methoxy-1-methylazetidine-3-carboxamide]
++++ (h DPP1 pIC50 higher than 8)	CN1C(=O)Cc2ccc(-c3ccc(C[C@@H](C#N)NC(=O)C4(C(F)F)CNC4)c(F)c3)cc21 [Example 16, (S)-N-(1-cyano-2-(2-fluoro-4-(1-methyl-2-oxoindolin-6-yl)phenyl)ethyl)-3-(difluoromethyl)azetidine-3-carboxamide]
++++ (h DPP1 pIC50 higher than 8)	COC1(C(=O)N[C@H](C#N)Cc2ccc(-c3ccc4c(c3)N(C)C(=O)C4)cc2F)CN(C)C1 [Example 50, (S)-N-(1-cyano-2-(2-fluoro-4-(1-methyl-2-oxoindolin-6-yl)phenyl)ethyl)-3-methoxy-1-methylazetidine-3-carboxamide]
++++ (h DPP1 pIC50 higher than 8)	COC1(C(=O)N[C@H](C#N)Cc2ccc(-c3ccc(C#N)cc3)cc2F)CN(C)C1 [Example 41, (S)-N-(1-cyano-2-(4′-cyano-3-fluoro-[1,1′-biphenyl]-4-yl)ethyl)-3-methoxy-1-methylazetidine-3-carboxamide]

Same assay, conditions: 0.35 nM human DPP1, 300 μM H-Gly-Arg-AMC, 30 min pre-incubation at 25° C., pH 5.0; read-out: h DPP1 pIC50 (converted)

SMILES	IC50
N#Cc1ccc(-c2ccc(C[C@@H](C#N)NC(=O)C3CNC3)cc2)cc1 [Example 9, (S)-N-(1-cyano-2-(4′-cyano-[1,1′-biphenyl]-4-yl)ethyl)azetidine-3-carboxamide]	1 to 10 µM and 0.1 to 1 µM
N#Cc1ccc(-c2ccc(C[C@@H](C#N)NC(=O)C3(F)CNC3)cc2)cc1 [Example 2, (S)-N-(1-cyano-2-(4′-cyano-[1,1′-biphenyl]-4-yl)ethyl)-3-fluoroazetidine-3-carboxamide]	0.1 to 1 µM
COC1(C(=O)N[C@H](C#N)Cc2ccc(-c3ccc(C#N)cc3)cc2)CN(C2COC2)C1 [Example 29, (S)-N-(1-cyano-2-(4′-cyano-[1,1′-biphenyl]-4-yl)ethyl)-3-methoxy-1-(oxetan-3-yl)azetidine-3-carboxamide]	0.1 to 1 µM
CC1NCC1C(=O)N[C@H](C#N)Cc1ccc(-c2ccc(C#N)cc2)cc1 (stereo partly drawn) [Example 3, N-((S)-1-cyano-2-(4′-cyano-[1,1′-biphenyl]-4-yl)ethyl)-2-methylazetidine-3-carboxamide]	1 to 10 µM
CCC1(C(=O)N[C@H](C#N)Cc2ccc(-c3ccc(C#N)cc3)cc2)CNC1 [Example 5, (S)-N-(1-cyano-2-(4′-cyano-[1,1′-biphenyl]-4-yl)ethyl)-3-ethylazetidine-3-carboxamide]	0.1 to 1 µM

Results, then the molecule that gave them:

IC50	SMILES
1 to 10 µM	COCC1(C(=O)N[C@H](C#N)Cc2ccc(-c3ccc(C#N)cc3)cc2)CNC1 [Example 10, (S)-N-(1-cyano-2-(4′-cyano-[1,1′-biphenyl]-4-yl)ethyl)-3-(methoxymethyl)azetidine-3-carboxamide]
1 to 10 µM	CCCN1CC(OC)(C(=O)N[C@H](C#N)Cc2ccc(-c3ccc(C#N)cc3)cc2)C1 [Example 46, (S)-N-(1-cyano-2-(4′-cyano-[1,1′-biphenyl]-4-yl)ethyl)-3-methoxy-1-propylazetidine-3-carboxamide]
1 to 10 µM	COC1(C(=O)N[C@H](C#N)Cc2ccc(-c3ccc(C#N)cc3)cc2)CN(C(C)C)C1 [Example 30, (S)-N-(1-cyano-2-(4′-cyano-[1,1′-biphenyl]-4-yl)ethyl)-1-isopropyl-3-methoxyazetidine-3-carboxamide]
0.01 to 0.1 µM	COC1(C(=O)NC(C#N)Cc2ncc(-c3ccc(C#N)cc3)cc2F)CN(C)C1 (racemic) [Example 43, N-(1-cyano-2-(5-(4-cyanophenyl)-3-fluoropyridin-2-yl)ethyl)-3-methoxy-1-methylazetidine-3-carboxamide]
0.01 to 0.1 µM	CN1CC(O)(C(=O)N[C@H](C#N)Cc2ccc(-c3ccc(C#N)cc3)cc2)C1 [Example 38, (S)-N-(1-cyano-2-(4′-cyano-[1,1′-biphenyl]-4-yl)ethyl)-3-hydroxy-1-methylazetidine-3-carboxamide]

Same assay, conditions: human recombinant DPP1 isolated enzyme assay; read-out: pIC50 on DPP1 (converted)

IC50 [µM]	SMILES
1 to 10	N#Cc1ccc(-c2ccc(C[C@@H](C#N)NC(=O)C3CNC3)cc2)cc1 [Example 9, (S)-N-(1-cyano-2-(4′-cyano-[1,1′-biphenyl]-4-yl)ethyl)azetidine-3-carboxamide]

Target: T1, human DPP1 enzyme
Assay: not given
Details: values from K Doyle, J. Med. Chem. 2016, Table 3; cited from earlier work

SMILES	pIC50 in the human recombinant DPP1 isolated enzyme assay (state of the art)
N#C[C@H](Cc1ccc(-c2ccc3c(c2)C2(CCN(C4COC4)CC2)OC3)cc1F)NC(=O)C1(C(F)F)CNC1 [compound 15, (S)-N-(1-cyano-2-(2-fluoro-4-(1′-(oxetan-3-yl)-3H-spiro[isobenzofuran-1,4′-piperidin]-6-yl)phenyl)ethyl)-3-(difluoromethyl)azetidine-3-carboxamide]	less than 5
CN1C(=O)Cc2ccc(-c3ccc(C[C@@H](C#N)NC(=O)C4(C(F)F)CNC4)c(F)c3)cc21 [compound 16, (S)-N-(1-cyano-2-(2-fluoro-4-(1-methyl-2-oxoindolin-6-yl)phenyl)ethyl)-3-(difluoromethyl)azetidine-3-carboxamide]	5.9
Cn1c(=O)oc2ccc(-c3ccc(C[C@@H](C#N)NC(=O)C4(C(F)F)CNC4)cc3)cc21 [compound 14, (S)-N-(1-cyano-2-(4-(3-methyl-2-oxo-2,3-dihydrobenzo[d]oxazol-5-yl)phenyl)ethyl)-3-(difluoromethyl)azetidine-3-carboxamide]	less than 5
